From the kinase profiling compilation of Christmann-Franck et al. (2016)

Key:
Assay in all cases: radiometric filter-binding kinase assay, Kinase HotSpot
Conditions in all cases: compound 0.5 µM; ATP 10 µM
[1] = biological target: MARK1 (human) (UniProt Q9P0L2)
[2] = biological target: BRSK2 (human) (UniProt Q8IWQ3)
[3] = biological target: BLK (human) (UniProt P51451)
[4] = biological target: ITK (human) (UniProt Q08881)
[5] = biological target: DYRK3 (human) (UniProt O43781)
[6] = biological target: PRKCE (human) (UniProt Q02156)
[7] = biological target: MAPK10 (human) (UniProt P53779)
[8] = biological target: MAP4K5 (human) (UniProt Q9Y4K4)
[9] = biological target: STK4 (human) (UniProt Q13043)
[10] = biological target: RPS6KA4 KD2 (human) (UniProt O75676)
[11] = biological target: NTRK3 (human) (UniProt Q16288)
[12] = biological target: CDK2 CCNE1 (human) (UniProt P24941+P24864)
[13] = biological target: STK3 (human) (UniProt Q13188)
[14] = biological target: EPHA2 (human) (UniProt P29317)
[15] = biological target: CDK1 CCNA2 (human) (UniProt P06493+P20248)
[16] = biological target: LIMK1 (human) (UniProt P53667)
[17] = biological target: BMX (human) (UniProt P51813)
[18] = biological target: TXK (human) (UniProt P42681)
[19] = biological target: PHKG1 (human) (UniProt Q16816)
[20] = biological target: GSG2 (human) (UniProt Q8TF76)
[21] = biological target: RPS6KA6 KD1 KD2 (human) (UniProt Q9UK32)
[22] = biological target: NTRK2 (human) (UniProt Q16620)
[23] = biological target: FLT3 (human) (UniProt P36888)
[24] = biological target: DMPK (human) (UniProt Q09013)
[25] = biological target: NEK2 (human) (UniProt P51955)
[26] = biological target: CSNK2A1 (human) (UniProt P68400)
[27] = biological target: CDK7 CCNH MNAT1 (human) (UniProt P50613+P51948+P51946)
[28] = biological target: MAP2K1 (human) (UniProt Q02750)
[29] = biological target: INSR (human) (UniProt P06213)
[30] = biological target: EPHA1 (human) (UniProt P21709)
[31] = biological target: CSNK2A2 (human) (UniProt P19784)
[32] = biological target: CSNK1G3 (human) (UniProt Q9Y6M4)
[33] = biological target: PRKACA (human) (UniProt P17612)
[34] = biological target: SRPK2 (human) (UniProt P78362)
[35] = tested on: SGK1 (human), O00141 [S422D]
[36] = biological target: GSK3A (human) (UniProt P49840)
[37] = biological target: WNK3 (human) (UniProt Q9BYP7)
[38] = biological target: MAP3K9 (human) (UniProt P80192)
[39] = biological target: PTK2B (human) (UniProt Q14289)
[40] = biological target: AURKC (human) (UniProt Q9UQB9)
[41] = biological target: MAP2K2 (human) (UniProt P36507)
[42] = biological target: FGFR1 (human) (UniProt P11362)

WNK3 (human), sequence (Q9BYP7 whole entry, looked up): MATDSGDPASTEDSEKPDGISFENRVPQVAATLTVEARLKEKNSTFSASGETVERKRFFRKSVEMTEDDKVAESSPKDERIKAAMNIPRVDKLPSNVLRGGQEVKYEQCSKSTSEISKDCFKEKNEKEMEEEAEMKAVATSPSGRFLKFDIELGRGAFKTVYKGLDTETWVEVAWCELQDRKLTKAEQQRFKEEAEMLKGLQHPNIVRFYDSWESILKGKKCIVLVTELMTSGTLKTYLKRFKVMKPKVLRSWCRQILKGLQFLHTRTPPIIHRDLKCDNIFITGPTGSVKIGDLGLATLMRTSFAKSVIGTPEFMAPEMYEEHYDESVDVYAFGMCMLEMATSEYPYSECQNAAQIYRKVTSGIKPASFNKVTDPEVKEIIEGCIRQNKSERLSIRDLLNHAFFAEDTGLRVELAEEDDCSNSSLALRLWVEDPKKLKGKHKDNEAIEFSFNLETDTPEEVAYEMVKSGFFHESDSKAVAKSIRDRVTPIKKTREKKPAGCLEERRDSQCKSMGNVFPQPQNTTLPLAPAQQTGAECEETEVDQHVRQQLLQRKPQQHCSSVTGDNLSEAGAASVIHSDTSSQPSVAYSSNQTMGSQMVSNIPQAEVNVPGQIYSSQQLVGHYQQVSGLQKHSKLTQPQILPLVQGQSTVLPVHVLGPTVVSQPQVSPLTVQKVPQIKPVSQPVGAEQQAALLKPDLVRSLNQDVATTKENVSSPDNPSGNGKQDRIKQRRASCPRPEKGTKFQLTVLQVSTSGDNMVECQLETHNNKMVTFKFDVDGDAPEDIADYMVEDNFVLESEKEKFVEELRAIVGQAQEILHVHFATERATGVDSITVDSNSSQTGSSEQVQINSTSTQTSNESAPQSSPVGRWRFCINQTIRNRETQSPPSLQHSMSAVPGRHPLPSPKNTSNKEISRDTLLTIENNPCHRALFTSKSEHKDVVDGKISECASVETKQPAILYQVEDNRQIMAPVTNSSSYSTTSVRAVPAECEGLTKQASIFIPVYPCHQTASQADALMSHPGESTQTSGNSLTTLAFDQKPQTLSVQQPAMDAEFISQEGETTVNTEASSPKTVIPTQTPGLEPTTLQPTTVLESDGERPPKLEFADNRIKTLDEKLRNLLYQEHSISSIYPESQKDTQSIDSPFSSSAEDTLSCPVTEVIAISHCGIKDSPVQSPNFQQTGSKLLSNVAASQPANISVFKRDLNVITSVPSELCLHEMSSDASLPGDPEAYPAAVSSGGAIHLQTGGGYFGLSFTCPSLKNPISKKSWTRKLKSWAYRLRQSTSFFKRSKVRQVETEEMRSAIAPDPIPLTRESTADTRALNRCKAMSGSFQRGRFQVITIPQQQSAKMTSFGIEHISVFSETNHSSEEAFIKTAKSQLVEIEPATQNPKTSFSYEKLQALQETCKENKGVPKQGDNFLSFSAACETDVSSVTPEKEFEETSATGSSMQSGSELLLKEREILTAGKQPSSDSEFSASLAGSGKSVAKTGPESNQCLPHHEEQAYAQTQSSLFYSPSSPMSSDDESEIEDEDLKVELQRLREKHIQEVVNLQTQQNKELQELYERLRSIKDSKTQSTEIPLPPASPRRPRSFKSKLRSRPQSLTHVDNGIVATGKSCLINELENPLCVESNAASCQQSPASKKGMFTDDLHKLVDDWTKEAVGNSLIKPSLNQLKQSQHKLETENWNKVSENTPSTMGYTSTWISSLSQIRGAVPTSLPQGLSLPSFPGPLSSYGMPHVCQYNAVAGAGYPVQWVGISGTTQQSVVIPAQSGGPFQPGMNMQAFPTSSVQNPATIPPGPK
MAP4K5 (human), sequence (Q9Y4K4 whole entry, looked up): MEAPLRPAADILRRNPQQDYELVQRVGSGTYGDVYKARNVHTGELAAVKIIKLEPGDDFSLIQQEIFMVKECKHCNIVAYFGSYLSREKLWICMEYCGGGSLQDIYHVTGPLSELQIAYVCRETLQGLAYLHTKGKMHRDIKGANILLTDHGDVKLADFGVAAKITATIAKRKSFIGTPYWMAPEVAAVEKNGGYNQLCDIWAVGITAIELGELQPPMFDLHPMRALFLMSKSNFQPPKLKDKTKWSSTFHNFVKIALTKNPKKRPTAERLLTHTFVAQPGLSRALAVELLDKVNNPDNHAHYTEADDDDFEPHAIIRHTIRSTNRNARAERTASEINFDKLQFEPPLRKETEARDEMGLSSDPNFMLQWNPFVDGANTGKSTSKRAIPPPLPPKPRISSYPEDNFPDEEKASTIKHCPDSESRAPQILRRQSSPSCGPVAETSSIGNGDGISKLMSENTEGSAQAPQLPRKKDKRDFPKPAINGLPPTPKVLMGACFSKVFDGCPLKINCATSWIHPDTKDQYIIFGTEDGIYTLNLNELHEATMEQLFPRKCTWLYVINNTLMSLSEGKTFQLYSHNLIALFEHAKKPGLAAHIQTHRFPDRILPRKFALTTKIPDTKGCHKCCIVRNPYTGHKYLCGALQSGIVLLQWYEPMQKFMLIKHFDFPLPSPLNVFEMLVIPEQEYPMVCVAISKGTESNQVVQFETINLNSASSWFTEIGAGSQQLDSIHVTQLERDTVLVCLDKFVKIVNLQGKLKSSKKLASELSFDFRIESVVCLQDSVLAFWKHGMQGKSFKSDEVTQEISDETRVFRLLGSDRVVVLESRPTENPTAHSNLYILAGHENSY
TXK (human), sequence (P42681 whole entry, looked up): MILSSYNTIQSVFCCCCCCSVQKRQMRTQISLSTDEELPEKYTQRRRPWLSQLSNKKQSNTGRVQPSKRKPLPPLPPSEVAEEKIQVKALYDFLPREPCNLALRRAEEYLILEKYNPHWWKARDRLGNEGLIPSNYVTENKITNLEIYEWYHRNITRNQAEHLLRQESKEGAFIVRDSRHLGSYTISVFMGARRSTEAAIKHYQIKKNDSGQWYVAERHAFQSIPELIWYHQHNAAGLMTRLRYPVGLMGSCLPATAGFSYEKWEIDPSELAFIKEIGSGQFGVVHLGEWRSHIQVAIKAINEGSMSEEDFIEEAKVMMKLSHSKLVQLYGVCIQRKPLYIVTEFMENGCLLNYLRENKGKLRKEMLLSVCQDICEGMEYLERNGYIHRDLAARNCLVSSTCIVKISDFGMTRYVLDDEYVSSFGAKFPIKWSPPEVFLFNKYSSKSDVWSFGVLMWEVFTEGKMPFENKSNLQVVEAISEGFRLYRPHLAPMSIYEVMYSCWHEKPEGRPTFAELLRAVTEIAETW
GSG2 (human), sequence (Q8TF76 whole entry, looked up): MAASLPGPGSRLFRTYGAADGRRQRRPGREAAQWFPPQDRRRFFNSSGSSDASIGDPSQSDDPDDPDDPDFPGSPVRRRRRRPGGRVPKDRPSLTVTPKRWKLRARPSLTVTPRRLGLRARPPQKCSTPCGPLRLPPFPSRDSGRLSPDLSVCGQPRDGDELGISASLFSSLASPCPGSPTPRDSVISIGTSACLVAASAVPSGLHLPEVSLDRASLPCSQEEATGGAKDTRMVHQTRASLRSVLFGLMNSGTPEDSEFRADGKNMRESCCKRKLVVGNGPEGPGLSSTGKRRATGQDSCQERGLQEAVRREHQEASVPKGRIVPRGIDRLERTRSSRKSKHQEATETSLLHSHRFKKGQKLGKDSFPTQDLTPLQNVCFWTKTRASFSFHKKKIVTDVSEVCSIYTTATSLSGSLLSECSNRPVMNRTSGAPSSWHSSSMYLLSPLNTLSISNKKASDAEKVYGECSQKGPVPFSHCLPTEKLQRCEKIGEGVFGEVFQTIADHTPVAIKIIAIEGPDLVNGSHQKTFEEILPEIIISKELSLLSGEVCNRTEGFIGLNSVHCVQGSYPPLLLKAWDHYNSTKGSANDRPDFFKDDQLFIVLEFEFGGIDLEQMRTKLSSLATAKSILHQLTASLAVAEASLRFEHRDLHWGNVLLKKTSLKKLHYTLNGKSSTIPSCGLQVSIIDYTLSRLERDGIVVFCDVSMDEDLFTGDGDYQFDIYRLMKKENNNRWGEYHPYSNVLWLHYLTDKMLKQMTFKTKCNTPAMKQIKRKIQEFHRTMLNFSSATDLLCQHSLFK
CDK1 CCNA2 (human), sequence (P06493 whole entry, looked up): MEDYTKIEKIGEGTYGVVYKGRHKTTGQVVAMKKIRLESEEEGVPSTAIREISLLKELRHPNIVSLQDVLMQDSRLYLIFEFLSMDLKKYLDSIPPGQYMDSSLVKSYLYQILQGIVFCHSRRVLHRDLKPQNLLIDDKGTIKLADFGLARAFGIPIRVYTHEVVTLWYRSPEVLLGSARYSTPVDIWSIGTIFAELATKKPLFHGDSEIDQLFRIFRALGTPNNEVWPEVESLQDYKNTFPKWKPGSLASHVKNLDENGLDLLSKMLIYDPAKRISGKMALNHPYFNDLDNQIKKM
CDK1 CCNA2 (human), sequence (P20248 whole entry, looked up): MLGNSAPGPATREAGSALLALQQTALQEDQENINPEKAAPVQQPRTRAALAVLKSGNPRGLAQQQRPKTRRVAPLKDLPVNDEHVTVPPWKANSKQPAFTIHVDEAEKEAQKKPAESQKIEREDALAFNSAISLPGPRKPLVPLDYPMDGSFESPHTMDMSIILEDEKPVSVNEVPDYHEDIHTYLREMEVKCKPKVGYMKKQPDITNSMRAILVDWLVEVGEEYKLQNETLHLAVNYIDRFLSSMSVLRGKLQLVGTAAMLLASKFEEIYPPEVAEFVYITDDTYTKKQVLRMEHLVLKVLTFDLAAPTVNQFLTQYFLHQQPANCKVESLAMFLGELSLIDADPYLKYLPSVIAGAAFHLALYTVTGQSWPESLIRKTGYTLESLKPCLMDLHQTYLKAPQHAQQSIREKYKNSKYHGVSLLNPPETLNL
CSNK2A2 (human), sequence (P19784 whole entry, looked up): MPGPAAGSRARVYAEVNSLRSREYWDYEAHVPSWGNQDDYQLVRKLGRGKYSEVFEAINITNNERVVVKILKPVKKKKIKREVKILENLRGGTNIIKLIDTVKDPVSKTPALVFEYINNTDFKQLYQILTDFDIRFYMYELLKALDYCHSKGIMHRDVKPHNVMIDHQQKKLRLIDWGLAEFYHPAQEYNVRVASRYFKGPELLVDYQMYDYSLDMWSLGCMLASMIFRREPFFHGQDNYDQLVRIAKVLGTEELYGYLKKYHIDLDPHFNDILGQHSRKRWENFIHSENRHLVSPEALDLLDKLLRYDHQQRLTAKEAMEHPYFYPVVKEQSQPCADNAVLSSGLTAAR

Compound COc1cc2c(Nc3ccc(Br)cc3F)ncnc2cc1OCC1CCN(C)CC1 has a residual activity [1] of 83.7%, a residual activity [2] of 103% and a residual activity [3] of 33.8%. It also gave a residual activity [4] of 101%, a residual activity [5] of 96% and a residual activity [6] of 100%. For the same compound, the residual activity [7] was 96.9%, the residual activity [8] was 37.1% and the residual activity [9] was 103%. For the same compound, the residual activity [10] was 110%, the residual activity [11] was 72.2% and the residual activity [12] was 101%. For the same compound, the residual activity [13] was 97.5%, the residual activity [14] was 21.5% and the residual activity [15] was 100%. It also gave a residual activity [16] of 88.1%, a residual activity [17] of 88.4% and a residual activity [18] of 57.5%. The residual activity [19] was 55.5%, the residual activity [20] was 92.6% and the residual activity [21] was 99.3%. It also gave a residual activity [22] of 93.2%, a residual activity [23] of 43.7% and a residual activity [24] of 94.6%. It also gave a residual activity [25] of 103%, a residual activity [26] of 112% and a residual activity [27] of 102%. For the same compound, the residual activity [28] was 105%, the residual activity [29] was 102% and the residual activity [30] was 31.7%. For the same compound, the residual activity [31] was 96.5%, the residual activity [32] was 98.1% and the residual activity [33] was 92.8%. It also gave a residual activity [34] of 106%, a residual activity [35] of 115% and a residual activity [36] of 103%. For the same compound, the residual activity [37] was 98%, the residual activity [38] was 96.1% and the residual activity [39] was 99.5%.

Compound N#CCCc1ccc2c(c1)-c1[nH]c3ccc([N+](=O)[O-])cc3c1CC(=O)N2 has a residual activity [1] of 67.4%, a residual activity [2] of 42% and a residual activity [3] of 78.8%. It also gave a residual activity [4] of 99.9%, a residual activity [40] of 83.6% and a residual activity [5] of 97.6%. For the same compound, the residual activity [6] was 95.4%, the residual activity [41] was 90.3% and the residual activity [7] was 93.3%. It also gave a residual activity [8] of 7.61%, a residual activity [9] of 30.9% and a residual activity [10] of 85.8%. The residual activity [11] was 61.2%, the residual activity [12] was 13.4% and the residual activity [13] was 40.9%. The residual activity [14] was 93.6%, the residual activity [15] was 24.8% and the residual activity [16] was 99.9%. It also gave a residual activity [17] of 99.5%, a residual activity [18] of 67.6% and a residual activity [19] of 7.72%. For the same compound, the residual activity [20] was 110%, the residual activity [21] was 13.4% and the residual activity [22] was 86.4%. For the same compound, the residual activity [23] was 15.1%, the residual activity [24] was 89.8% and the residual activity [25] was 92.7%. For the same compound, the residual activity [42] was 91.9%, the residual activity [26] was 91.2% and the residual activity [28] was 97.1%. For the same compound, the residual activity [29] was 94.1%, the residual activity [30] was 91.7% and the residual activity [31] was 92.9%. It also gave a residual activity [32] of 89.7%, a residual activity [33] of 87.6% and a residual activity [34] of 109%. For the same compound, the residual activity [35] was 87.9%, the residual activity [36] was 0.804% and the residual activity [37] was 96.5%. It also gave a residual activity [38] of 18.2% and a residual activity [39] of 62.9%.

N#C/C(=C1/Nc2ccccc2S1)c1ccnc(NCCc2cccnc2)n1 gave a residual activity [1] of 97.6%, a residual activity [2] of 88.1% and a residual activity [3] of 102%. The residual activity [4] was 98.8%, the residual activity [40] was 96% and the residual activity [5] was 103%. The residual activity [6] was 92.1%, the residual activity [41] was 76.2% and the residual activity [8] was 87.5%. For the same compound, the residual activity [9] was 92.2%, the residual activity [10] was 107% and the residual activity [11] was 80.2%. For the same compound, the residual activity [12] was 82.7%, the residual activity [13] was 98.9% and the residual activity [14] was 103%. It also gave a residual activity [15] of 83%, a residual activity [16] of 90.2% and a residual activity [17] of 92.9%. For the same compound, the residual activity [18] was 49.3%, the residual activity [19] was 89% and the residual activity [20] was 31%. The residual activity [21] was 87%, the residual activity [22] was 93.2% and the residual activity [23] was 58.2%. The residual activity [25] was 87.8%, the residual activity [42] was 99% and the residual activity [26] was 22.1%. It also gave a residual activity [27] of 93.2%, a residual activity [28] of 93.2% and a residual activity [29] of 100%. It also gave a residual activity [30] of 95.5%, a residual activity [31] of 27.1% and a residual activity [32] of 87.1%. The residual activity [33] was 103%, the residual activity [34] was 97.1% and the residual activity [35] was 100%. For the same compound, the residual activity [36] was 2.42%, the residual activity [37] was 81.3% and the residual activity [38] was 100%. For the same compound, the residual activity [39] was 98.7%.
